Assay results from publication PMC6199279, “Design of Peptoid-peptide Macrocycles to Inhibit the β-catenin TCF Interaction in Prostate Cancer” (Nature Communications, 2018).
Numbered stars: 1 amine (or outer) side, 2 acyl side, 3 side chain; on linkers, the order of the positions; unused ones are H or OH. Square brackets hold non-standard residues; d marks the D form. Peptide text beside a SMILES is read from it. N(2-(2-PhOPh)Et)Gly = O=C(O)CNCCc1ccccc1Oc1ccccc1; Gly(N-3,5-(OMe)2-Ph) = COc1cc(NCC(=O)O)cc(OC)c1; X1 = COc1ccc([C@H](C)N(CC(=O)[*:2])[*:1])cc1; N((CH2)3OiPr)Gly = CC(C)OCCCNCC(=O)O

How the values were obtained:
[1] = system: TOP-Flash Wnt luciferase reporter; assay: TOP-Flash Wnt luciferase reporter assay in LNCaP-abl cells; format: cell-based; conditions: for Effect of control Wnt inhibitors on the Wnt luciferase reporter: dose response, commercially available inhibitors (Supplementary Fig. 5)
Text: (§1) Using a TOP-Flash Wnt luciferase reporter, we tested the 12 oligomers identified from in silico modeling for inhibitory activity (Fig. 2b). […] We also employed a 3 × -Androgen Response Element (ARE) luciferase reporter to measure the effect on AR activity. […] As additional controls, we obtained previously developed, commercially available Wnt inhibitors and tested them in the Wnt luciferase assay (Supplementary Fig. 5).
(§2) We next characterized the dose response curves for compound 13 in the Wnt and AR luciferase reporters. The linear version of 13 (linear 13: NH2-|N-mpp, N-dmp, N-ipp, N-Smpe, N-Smpe, D-Ala|-OH) was used as a control compound. […] To test direct binding, we pre-formed dynamic light scattering (DLS) with β-catenin in the presence of vehicle, compound 13, and α-cyclodextrin. […] HEK293 cells were transiently transfected with a plasmid expressing full length, myc-tagged TCF4. After 48 h treatment with either vehicle (DMSO) or 10 µM 13, cells were lysed and myc-TCF4 protein was immunoprecipitated.
LNCaP-abl and LNCaP-95 cells were cultured in indicator free RPMI 1640 media (Life) supplemented with 10% charcoal stripped FBS, 1% pennicillin/streptomycin, and 1% L-Glutamine. HEK-293 Cells were cultured in DMEM media (Life) supplemented with 10%FBS and 1% pennicillin/streptomycin. A549 and U2OS cells were cultured in RPMI 1640 media (Life) and McCoy’s 5 A modified media (Life), respectively, both supplemented with 10%FBS and 1% pennicillin/streptomycin. LNCaP-abl, and LNCaP-95 cell lines were generous gifts from Z. Culig (Innsbruck Medical University, Austria) and J. Isaacs (Johns Hopkins University, Baltimore, MD), respectively. Cell lines were authenticated by STR profiling (Genetica Cell Line Testing; Burlington, NC). A549 and U2OS were purchased from ATCC (product numbers CCL-185 and HTB-96). Cell lines were routinely screened for mycoplasma. Luciferase assays were conducted using stably transfected TOP-flash and 3xARE LNCaP-abl cell lines. For the Wnt pathway, TOP-Flash LNCaP-abl cells were treated with 1 nM siAPC (a 1:1:1 mix of Ambion Silencer Silect siAPC RNA, ID#s s1433, s1434, s1435) for 24 h and seeded into 384-well plates at 5000 cells/well, followed by 24 h of treatment with compound. For the AR-pathway, 3xARE LNCaP-abl cells were seeded into 384-well plates at 5000 cells per well, treated for 48 h with compound, with the addition of R1881 for the final 8 h. Both were measured using the ONE-Glo detection kit (Promega) and data is standardized to CellTiter-Fluor (Promega) viability readings to account for potential variations in well to well cell number. Control Wnt inhibitors were purchased from Sigma with the exception of PRI-724 which was purchased from Selleckchem. Co-immunoprecipitation was carried out using HEK293 cells transfected with either myc-TCF (addgene #32738) or myc-TCF dominant negative (addgene #32739) followed by 48 h of treatment with compound. Cells were lysed using Triton lysis buffer and 1 mg total protein was incubated overnight at 4 C with 40 µl anti-cMyc magnetic beads (Thermo). Total protein concentration in cell lysates were determined using Pierce Rapid Gold BCA Protein Assay Kit (Thermo). The beads were washed 3× with lysis buffer then boiled in 2X sample loading dye. SDS-PAGE and western blotting were performed using anti-Myc (CST 2276) and anti-β-catenin (CST 8480). Both antibodies were diluted in blocking buffer 1:1000 and incubated overnight at 4 C with the membrane. […]

[2] = design: method as in PMID 24019458; conditions: mouse xenograft experiments, direct tumor injection required; cited from earlier work
β-catenin = molecular target: T1, β-catenin (Homo sapiens, UniProt P35222); assay: Dynamic light scattering of β-catenin; format: binding; conditions: 10 µM compound vs 1% DMSO vehicle
T1 construct: His6-β-catenin armadillo domain, AA134-668; made in house; host or cells: E. coli BL21 DL3 (NEB)
T1 sequence (P35222 134-668): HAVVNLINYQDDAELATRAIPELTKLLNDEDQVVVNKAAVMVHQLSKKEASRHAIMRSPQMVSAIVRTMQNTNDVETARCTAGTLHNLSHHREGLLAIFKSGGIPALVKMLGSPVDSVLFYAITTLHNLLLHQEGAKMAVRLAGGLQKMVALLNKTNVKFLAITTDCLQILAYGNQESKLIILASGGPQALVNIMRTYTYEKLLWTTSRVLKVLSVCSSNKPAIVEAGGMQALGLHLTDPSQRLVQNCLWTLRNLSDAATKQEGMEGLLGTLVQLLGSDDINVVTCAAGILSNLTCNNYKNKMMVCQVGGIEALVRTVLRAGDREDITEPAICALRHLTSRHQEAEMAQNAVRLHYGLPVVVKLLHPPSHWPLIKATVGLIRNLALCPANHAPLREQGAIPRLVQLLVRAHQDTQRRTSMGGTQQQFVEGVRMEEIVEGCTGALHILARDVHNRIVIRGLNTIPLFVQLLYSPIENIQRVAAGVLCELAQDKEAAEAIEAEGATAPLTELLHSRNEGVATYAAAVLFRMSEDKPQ
Method: as §2

[3] = system: Wnt signaling in zebrafish embryos; conditions: 50 µl of 30 µM compound added at ~5.5 hpf, BIO added about 30 min later; eight fish per group
Method: To evaluate the efficacy of 13 in vivo, we utilized a Danio rerio (zebrafish) model. […] To test this, BIO was added to zebrafish embryos at 6 hpf with and without 13 as described in Fig. 6a.
The zebrafish phenotypic assay was conducted using wild-type zebrafish embryos seeded into a 96-well round bottom plate at 4 hpf in 50 µl of Fish Water (60 mg/l sea salt, Instant Ocean, Blacksburg, VA, USA) supplemented with 1 mg per L Methylene Blue (Sigma-Aldrich). The embryos were not dechorionated. At 50% epiboly, roughly 5.5 hpf, 50 µl of 30 µM 13 or Linear 13 was added. About 30 min later at shield stage, 50 µl of 6 nM (3×) BIO was added. The embryos were then visualized for the presence of eyes and imaged at 30 hpf. Zebrafish embryos were randomly assigned to non-blinded treatment groups, none were excluded. Sample size was determined with a power calculation to achieve statistical significance (alpha = 0.05, beta = 0.2) if only 60% of the fish had developed eyes.

[4] = system: AR luciferase reporter (3xARE); assay: 3x-Androgen Response Element (ARE) luciferase reporter assay in LNCaP-abl cells; format: cell-based; conditions: 3xARE LNCaP-abl cells, 48 h compound, androgen-activated; read-out: IC50 for inhibition of the AR luciferase reporter
Text: as §1, §2
LNCaP-abl and LNCaP-95 cells were cultured in indicator free RPMI 1640 media (Life) supplemented with 10% charcoal stripped FBS, 1% pennicillin/streptomycin, and 1% L-Glutamine. HEK-293 Cells were cultured in DMEM media (Life) supplemented with 10%FBS and 1% pennicillin/streptomycin. A549 and U2OS cells were cultured in RPMI 1640 media (Life) and McCoy’s 5 A modified media (Life), respectively, both supplemented with 10%FBS and 1% pennicillin/streptomycin. LNCaP-abl, and LNCaP-95 cell lines were generous gifts from Z. Culig (Innsbruck Medical University, Austria) and J. Isaacs (Johns Hopkins University, Baltimore, MD), respectively. Cell lines were authenticated by STR profiling (Genetica Cell Line Testing; Burlington, NC). […] Both were measured using the ONE-Glo detection kit (Promega) and data is standardized to CellTiter-Fluor (Promega) viability readings to account for potential variations in well to well cell number. […] Total protein concentration in cell lysates were determined using Pierce Rapid Gold BCA Protein Assay Kit (Thermo). […]

CCc1ccc(-c2nc(CSCC(=O)NCCc3ccccc3)c(C)o2)cc1 [iCRT3, reference compound]
Effect of control Wnt inhibitors on the Wnt luciferase reporter [1]: did inhibit the luciferase reporter | Systemic stability [2]: not systemically stable

C[C@H]1[C@H]2N(C(=O)CN(C)N2C(=O)NCc2ccccc2)[C@@H](Cc2ccc(OP(=O)(O)O)cc2)C(=O)N1Cc1cccc2cccnc12 [PRI-724, reference compound]
Effect of control Wnt inhibitors on the Wnt luciferase reporter [1]: did inhibit the luciferase reporter

OC[C@H]1O[C@@H]2O[C@H]3[C@H](O)[C@@H](O)[C@@H](O[C@H]4[C@H](O)[C@@H](O)[C@@H](O[C@H]5[C@H](O)[C@@H](O)[C@@H](O[C@H]6[C@H](O)[C@@H](O)[C@@H](O[C@H]7[C@H](O)[C@@H](O)[C@@H](O[C@H]1[C@H](O)[C@H]2O)O[C@@H]7CO)O[C@@H]6CO)O[C@@H]5CO)O[C@@H]4CO)O[C@@H]3CO [α-cyclodextrin, reference compound]
Shift in measured hydrodynamic radius of β-catenin (DLS) (β-catenin): did not cause the same shift

COc1ccc([C@H](C)N(CC(=O)N[C@H](C)C(=O)O)C(=O)CN(C(=O)CN(CCCOC(C)C)C(=O)CN(C(=O)CNCCc2ccccc2Oc2ccccc2)c2cc(OC)cc(OC)c2)[C@@H](C)c2ccc(OC)cc2)cc1 [linear 13, NH2-|N-mpp, N-dmp, N-ipp, N-Smpe, N-Smpe, D-Ala|-OH] (H-[N(2-(2-PhOPh)Et)Gly][Gly(N-3,5-(OMe)2-Ph)][N((CH2)3OiPr)Gly][X1][X1][dA]-OH)
IC50 ([1]; TOP-Flash LNCaP-abl cells, siAPC knockdown, 24 h compound, ± SD of three replicates, read-out: IC50 for Wnt luciferase inhibition): 3.27 µM | Fish that developed eyes, BIO plus compound [3]: 6/8 | IC50 [4]: 7.63 µM
